In PubChem BioAssay AID1963981 (Molecular Pharmacology Branch, DTP, NCI, 2024):

System: 354836-022-R-J1-PDC multicell spheroid viability
Assay: Anticancer human tumor 354836-022-R-J1-PDC patient-derived head and neck squamous cell carcinoma cell line growth inhibition [PI3K]
Conditions: for IC50: curve of first compound; for viability, T/C: stronger effect = lower value
Procedure, shortened: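 Agents were dosed from a top concentration near clinical Cmax (otherwise 10 microM) in half-log decrements, alone or combined with PI3K inhibitors. The spheroids contain tumor cells plus endothelial (HUVEC) and MSC stroma; viability is measured.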

[1] = second compound 0.0316 µM, first compound 0.000316 µM
[2] = second compound 0.0316 µM, first compound 0.001 µM
[3] = second compound 0.0316 µM, first compound 0.00316 µM
[4] = second compound 0.0316 µM, first compound 0.01 µM
[5] = second compound 0.0316 µM, first compound 0.0316 µM
[6] = second compound 0.0316 µM, first compound 0.1 µM
[7] = second compound 0.1 µM, first compound 0.000316 µM
[8] = second compound 0.1 µM, first compound 0.001 µM
[9] = second compound 0.1 µM, first compound 0.00316 µM
[10] = second compound 0.1 µM, first compound 0.01 µM
[11] = second compound 0.1 µM, first compound 0.0316 µM
[12] = second compound 0.1 µM, first compound 0.1 µM
[13] = second compound 0.316 µM, first compound 0.000316 µM
[14] = second compound 0.316 µM, first compound 0.001 µM
[15] = second compound 0.316 µM, first compound 0.00316 µM
[16] = second compound 0.316 µM, first compound 0.01 µM
[17] = second compound 0.316 µM, first compound 0.0316 µM
[18] = second compound 0.316 µM, first compound 0.1 µM
[19] = second compound 1 µM, first compound 0.000316 µM
[20] = second compound 1 µM, first compound 0.001 µM
[21] = second compound 1 µM, first compound 0.00316 µM
[22] = second compound 1 µM, first compound 0.01 µM
[23] = second compound 1 µM, first compound 0.0316 µM
[24] = second compound 1 µM, first compound 0.1 µM
[25] = second compound 3.16 µM, first compound 0.000316 µM
[26] = second compound 3.16 µM, first compound 0.001 µM
[27] = second compound 3.16 µM, first compound 0.00316 µM
[28] = second compound 3.16 µM, first compound 0.01 µM
[29] = second compound 3.16 µM, first compound 0.0316 µM
[30] = second compound 3.16 µM, first compound 0.1 µM
[31] = second compound 10 µM, first compound 0.000316 µM
[32] = second compound 10 µM, first compound 0.001 µM
[33] = second compound 10 µM, first compound 0.00316 µM
[34] = second compound 10 µM, first compound 0.01 µM
[35] = second compound 10 µM, first compound 0.0316 µM
[36] = second compound 10 µM, first compound 0.1 µM
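Further: spheroids exposed to agents for seven days before the viability read.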

CC(=O)c1c(C)c2cnc(Nc3ccc(N4CCNCC4)cn3)nc2n(C2CCCC2)c1=O + CC(Nc1ncnc2nc[nH]c12)c1cc2cccc(Cl)c2c(=O)n1-c1ccccc1
IC50 (second compound 0.0316 µM): > 100 nM | IC50 (second compound 0.1 µM): > 100 nM | IC50 (second compound 0.316 µM): > 100 nM | IC50 (second compound 1 µM): > 100 nM | IC50 (second compound 3.16 µM): > 100 nM | IC50 (second compound 10 µM): > 100 nM | viability, T/C [1]: 96.8% | viability, T/C [2]: 110% | viability, T/C [3]: 108% | viability, T/C [4]: 103% | viability, T/C [5]: 97.7% | viability, T/C [6]: 99.5% | viability, T/C [7]: 89.4% | viability, T/C [8]: 99.3% | viability, T/C [9]: 94.9% | viability, T/C [10]: 91.5% | viability, T/C [11]: 105% | viability, T/C [12]: 101% | viability, T/C [13]: 90% | viability, T/C [14]: 98.8% | viability, T/C [15]: 100% | viability, T/C [16]: 100% | viability, T/C [17]: 111% | viability, T/C [18]: 113% | viability, T/C [19]: 82.2% | viability, T/C [20]: 96.7% | viability, T/C [21]: 97.2% | viability, T/C [22]: 110% | viability, T/C [23]: 96.8% | viability, T/C [24]: 91.6% | viability, T/C [25]: 108% | viability, T/C [26]: 107% | viability, T/C [27]: 98.5% | viability, T/C [28]: 104% | viability, T/C [29]: 88.3% | viability, T/C [30]: 90.2% | viability, T/C [31]: 89.8% | viability, T/C [32]: 95.2% | viability, T/C [33]: 91.1% | viability, T/C [34]: 109% | viability, T/C [35]: 98.8% | viability, T/C [36]: 91.5%

CC(C)n1nc(-c2ccc3oc(N)nc3c2)c2c(N)ncnc21 + CC(Nc1ncnc2nc[nH]c12)c1cc2cccc(Cl)c2c(=O)n1-c1ccccc1
IC50 (second compound 0.0316 µM): 15.5 nM | IC50 (second compound 0.1 µM): 21.7 nM | IC50 (second compound 0.316 µM): 16.4 nM | IC50 (second compound 1 µM): 15.5 nM | IC50 (second compound 3.16 µM): 19.3 nM | IC50 (second compound 10 µM): 16.8 nM | viability, T/C [1]: 88.2% | viability, T/C [2]: 96.5% | viability, T/C [3]: 79.9% | viability, T/C [4]: 57% | viability, T/C [5]: 35.3% | viability, T/C [6]: 5.53% | viability, T/C [7]: 97.8% | viability, T/C [8]: 102% | viability, T/C [9]: 81.1% | viability, T/C [10]: 86.3% | viability, T/C [11]: 32.8% | viability, T/C [12]: 4.44% | viability, T/C [13]: 92.6% | viability, T/C [14]: 101% | viability, T/C [15]: 80.7% | viability, T/C [16]: 61.2% | viability, T/C [17]: 34.9% | viability, T/C [18]: 6.09% | viability, T/C [19]: 113% | viability, T/C [20]: 98.2% | viability, T/C [21]: 92.7% | viability, T/C [22]: 59.5% | viability, T/C [23]: 31.6% | viability, T/C [24]: 5.81% | viability, T/C [25]: 105% | viability, T/C [26]: 99% | viability, T/C [27]: 73.1% | viability, T/C [28]: 68.1% | viability, T/C [29]: 40.9% | viability, T/C [30]: 5.66% | viability, T/C [31]: 95.5% | viability, T/C [32]: 101% | viability, T/C [33]: 89.2% | viability, T/C [34]: 62.7% | viability, T/C [35]: 33.3% | viability, T/C [36]: 6.25%

CCCS(=O)(=O)Nc1ccc(F)c(C(=O)c2c[nH]c3ncc(-c4ccc(Cl)cc4)cc23)c1F + CC(Nc1ncnc2nc[nH]c12)c1cc2cccc(Cl)c2c(=O)n1-c1ccccc1
IC50 (second compound 0.0316 µM): 5950 nM | IC50 (second compound 0.1 µM): 5790 nM | IC50 (second compound 0.316 µM): 6710 nM | IC50 (second compound 1 µM): 5500 nM | IC50 (second compound 3.16 µM): 6290 nM | IC50 (second compound 10 µM): 5980 nM | viability, T/C [5]: 94.8% | viability, T/C [6]: 108% | viability, T/C (second compound 0.0316 µM, first compound 0.316 µM): 98.4% | viability, T/C (second compound 0.0316 µM, first compound 1 µM): 107% | viability, T/C (second compound 0.0316 µM, first compound 3.16 µM): 88.8% | viability, T/C (second compound 0.0316 µM, first compound 10 µM): 17.8% | viability, T/C [11]: 99.8% | viability, T/C [12]: 99.8% | viability, T/C (second compound 0.1 µM, first compound 0.316 µM): 109% | viability, T/C (second compound 0.1 µM, first compound 1 µM): 105% | viability, T/C (second compound 0.1 µM, first compound 3.16 µM): 83.8% | viability, T/C (second compound 0.1 µM, first compound 10 µM): 19.7% | viability, T/C [17]: 98% | viability, T/C [18]: 106% | viability, T/C (second compound 0.316 µM, first compound 0.316 µM): 125% | viability, T/C (second compound 0.316 µM, first compound 1 µM): 104% | viability, T/C (second compound 0.316 µM, first compound 3.16 µM): 110% | viability, T/C (second compound 0.316 µM, first compound 10 µM): 18.9% | viability, T/C [23]: 103% | viability, T/C [24]: 93.9% | viability, T/C (second compound 1 µM, first compound 0.316 µM): 111% | viability, T/C (second compound 1 µM, first compound 1 µM): 94.5% | viability, T/C (second compound 1 µM, first compound 3.16 µM): 81.1% | viability, T/C (second compound 1 µM, first compound 10 µM): 16.6% | viability, T/C [29]: 114% | viability, T/C [30]: 111% | viability, T/C (second compound 3.16 µM, first compound 0.316 µM): 105% | viability, T/C (second compound 3.16 µM, first compound 1 µM): 106% | viability, T/C (second compound 3.16 µM, first compound 3.16 µM): 92.9% | viability, T/C (second compound 3.16 µM, first compound 10 µM): 21.1% | viability, T/C [35]: 89.7% | viability, T/C [36]: 96% | viability, T/C (second compound 10 µM, first compound 0.316 µM): 94.2% | viability, T/C (second compound 10 µM, first compound 1 µM): 88.7% | viability, T/C (second compound 10 µM, first compound 3.16 µM): 92.6% | viability, T/C (second compound 10 µM, first compound 10 µM): 16%
